# From patent publication US20200016159A1, “N3-CYCLICALLY SUBSTITUTED THIENOURACILS AND USE THEREOF” (Bayer Aktiengesellschaft, priority 2016, published 2020)
# Target: T1, human adenosine A2b receptor (Homo sapiens, UniProt P29275)
# T1 sequence (P29275 1-332): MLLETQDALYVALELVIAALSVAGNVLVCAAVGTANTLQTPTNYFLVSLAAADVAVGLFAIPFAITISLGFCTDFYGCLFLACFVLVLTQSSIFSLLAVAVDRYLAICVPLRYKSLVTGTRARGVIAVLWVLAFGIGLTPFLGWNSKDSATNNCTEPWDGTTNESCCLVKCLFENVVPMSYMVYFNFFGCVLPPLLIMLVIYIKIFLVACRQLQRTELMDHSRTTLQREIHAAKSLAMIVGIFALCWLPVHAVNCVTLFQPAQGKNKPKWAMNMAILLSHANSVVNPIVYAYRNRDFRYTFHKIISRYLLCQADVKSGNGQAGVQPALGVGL
# Assay: Cellular in vitro reporter gene test for A2b receptor activity (antagonism of NECA)
# Type: cell-based
# Set-up: expressed in transfected cells; host or cells: CHO-K1 (Chinese hamster ovary) with CRE-luciferase reporter
# Conditions: recombinant CHO-K1 cells, CRE-luciferase reporter, co-incubation with EC50 concentration of NECA, 3 hours
# In short: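 CHO-K1 cells expressing recombinant human A2b receptor plus a CRE-driven firefly luciferase reporter. Compounds co-incubated with NECA at its same-day EC50 concentration; luminescence read 3 hours after NECA addition. IC50 values, sometimes means of several determinations rounded to two significant figures.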
row,SMILES,IC50
1,"CCCn1c(=O)n(C2CC2C)c(=O)c2c(C)c(CN3CCNC3=O)sc21 (single isomer, unassigned) [Example 228, 5-Methyl-3-(2-methylcyclopropyl)-6-[(2-oxoimidazolidin-1-yl)methyl]-1-propylthieno[2,3-d]pyrimidine-2,4(1H,3H)-dione]",5.8 nM
2,"COCCn1c(=O)n(C2CCC2)c(=O)c2c(C)c(CN3CCNC3=O)sc21 [Example 115, 3-Cyclobutyl-1-(2-methoxyethyl)-5-methyl-6-[(2-oxoimidazolidin-1-yl)methyl]thieno[2,3-d]pyrimidine-2,4(1H,3H)-dione]",4.3 nM
3,"Cc1c(CN2CCNC2=NC#N)sc2c1c(=O)n(C1CC1)c(=O)n2CCC(F)(F)F [Example 11, [1-{[3-Cyclopropyl-5-methyl-2,4-dioxo-1-(3,3,3-trifluoropropyl)-1,2,3,4-tetrahydrothieno[2,3-d]pyrimidin-6-yl]methyl}imidazolidin-2-ylidene]cyanamide]",3.3 nM
4,"COC(=O)N=C1NCCN1Cc1sc2c(c1C)c(=O)n([C@H]1C[C@H](OC)C1)c(=O)n2CCC(F)(F)F [Example 146, Methyl [1-{[3-(trans-3-methoxycyclobutyl)-5-methyl-2,4-dioxo-1-(3,3,3-trifluoropropyl)-1,2,3,4-tetrahydrothieno[2,3-d]pyrimidin-6-yl]methyl}imidazolidin-2-ylidene]carbamate]",6.2 nM
5,"Cc1c(Cn2cc[nH]c2=O)sc2c1c(=O)n(C1CC1)c(=O)n2CC1CC(F)(F)C1 [Example 205, 3-Cyclopropyl-1-[(3,3-difluorocyclobutyl)methyl]-5-methyl-6-[(2-oxo-2,3-dihydro-1H-imidazol-1-yl)methyl]thieno[2,3-d]pyrimidine-2,4(1H,3H)-dione]",7 nM
6,"Cc1c(CN2CCNC2=O)sc2c1c(=O)n(C1CC1)c(=O)n2C[C@@H]1CCCO1 [Example 39, 3-Cyclopropyl-5-methyl-6-[(2-oxoimidazolidin-1-yl)methyl]-1-[(2S)-tetrahydrofuran-2-ylmethyl]thieno[2,3-d]pyrimidine-2,4(1H,3H)-dione]",240 nM
7,"Cc1c(CN2CCNC2=O)sc2c1c(=O)n([C@H]1C[C@@H]1C)c(=O)n2CC1CCC1 [Example 248, 1-(Cyclobutylmethyl)-5-methyl-3-[(1S,2S)-2-methylcyclopropyl]-6-[(2-oxoimidazolidin-1-yl)methyl]thieno[2,3-d]pyrimidine-2,4(1H,3H)-dione]",1.2 nM
8,"Cc1c(Cn2cc[nH]c2=O)sc2c1c(=O)n(C1CC1C)c(=O)n2CCOC(F)(F)F (single isomer, unassigned) [Example 272, 5-Methyl-3-(2-methylcyclopropyl)-6-[(2-oxo-2,3-dihydro-1H-imidazol-1-yl)methyl]-1-[2-(trifluoromethoxy)ethyl]thieno[2,3-d]pyrimidine-2,4(1H,3H)-dione]",1 nM
9,"Cc1c(CN2CCNC2=O)sc2c1c(=O)n([C@H]1C[C@@H]1C)c(=O)n2CC1CC1(F)F (stereo partly drawn) [Example 249, 1-[(2,2-Difluorocyclopropyl)methyl]-5-methyl-3-[(1S,2S)-2-methylcyclopropyl]-6-[(2-oxoimidazolidin-1-yl)methyl]thieno[2,3-d]pyrimidine-2,4(1H,3H)-dione]",1.9 nM
10,"Cc1c(Cn2cc[nH]c2=O)sc2c1c(=O)n(C1CC1C)c(=O)n2CCOC(F)(F)F (racemic) [Example 270, 5-Methyl-3-(2-methylcyclopropyl)-6-[(2-oxo-2,3-dihydro-1H-imidazol-1-yl)methyl]-1-[2-(trifluoromethoxy)ethyl]thieno[2,3-d]pyrimidine-2,4(1H,3H)-dione]",1.5 nM
11,"Cc1c(CN2CCNC2=O)sc2c1c(=O)n(C1CC1C)c(=O)n2CCCF (single isomer, unassigned) [Example 91, 1-(3-Fluoropropyl)-5-methyl-3-(2-methylcyclopropyl)-6-[(2-oxoimidazolidin-1-yl)methyl]thieno[2,3-d]pyrimidine-2,4(1H,3H)-dione]",20 nM
12,"COCCn1c(=O)n(C2CC(C)(C)C2)c(=O)c2c(C)c(CN3CCNC3=NC(=O)OC)sc21 [Example 171, Methyl [1-{[3-(3,3-dimethylcyclobutyl)-1-(2-methoxyethyl)-5-methyl-2,4-dioxo-1,2,3,4-tetrahydrothieno[2,3-d]pyrimidin-6-yl]methyl}imidazolidin-2-ylidene]carbamate]",17 nM

# More lines, now with the values ahead:
row,IC50,SMILES
1,120 nM,"Cc1c(Cn2nc[nH]c2=O)sc2c1c(=O)n(C1(C)CC1)c(=O)n2CC#N [Example 69, [5-Methyl-3-(1-methylcyclopropyl)-2,4-dioxo-6-[(5-oxo-4,5-dihydro-1H-1,2,4-triazol-1-yl)methyl]-3,4-dihydrothieno[2,3-d]pyrimidin-1(2H)-yl]acetonitrile]"
2,120 nM,"Cc1c(Cn2nc[nH]c2=O)sc2c1c(=O)n(C1CC1)c(=O)n2CCCF [Example 197, 3-Cyclopropyl-1-(3-fluoropropyl)-5-methyl-6-[(5-oxo-4,5-dihydro-1H-1,2,4-triazol-1-yl)methyl]thieno[2,3-d]pyrimidine-2,4(1H,3H)-dione]"
3,8.5 nM,"Cc1c(Cn2nc[nH]c2=O)sc2c1c(=O)n([C@H]1C[C@@H]1C)c(=O)n2CC1CCC1 [Example 327, 1-(Cyclobutylmethyl)-5-methyl-3-[(1S,2S)-2-methylcyclopropyl]-6-[(5-oxo-4,5-dihydro-1H-1,2,4-triazol-1-yl)methyl]thieno[2,3-d]pyrimidine-2,4(1H,3H)-dione]"
4,120 nM,"Cc1c(Cn2nc[nH]c2=O)sc2c1c(=O)n(C1(C)CC1)c(=O)n2C [Example 53, 1,5-Dimethyl-3-(1-methylcyclopropyl)-6-[(5-oxo-4,5-dihydro-1H-1,2,4-triazol-1-yl)methyl]thieno[2,3-d]pyrimidine-2,4(1H,3H)-dione]"
5,110 nM,"Cc1c(Cn2nc[nH]c2=O)sc2c1c(=O)n(C1CC1)c(=O)n2CC1CCCO1 (racemic) [Example 49, 3-Cyclopropyl-5-methyl-6-[(5-oxo-4,5-dihydro-1H-1,2,4-triazol-1-yl)methyl]-1-(tetrahydrofuran-2-ylmethyl)thieno[2,3-d]pyrimidine-2,4(1H,3H)-dione]"
6,11 nM,"CCn1c(=O)n(C2CC2C)c(=O)c2c(C)c(CN3CCNC3=O)sc21 (racemic) [Example 224, 1-Ethyl-5-methyl-3-(2-methylcyclopropyl)-6-[(2-oxoimidazolidin-1-yl)methyl]thieno[2,3-d]pyrimidine-2,4(1H,3H)-dione]"
7,10 nM,"Cc1c(Cn2nc[nH]c2=O)sc2c1c(=O)n(C1CC1)c(=O)n2CC1CCCC1(F)F (single isomer, unassigned) [Example 208, 3-Cyclopropyl-1-[(2,2-difluorocyclopentyl)methyl]-5-methyl-6-[(5-oxo-4,5-dihydro-1H-1,2,4-triazol-1-yl)methyl]thieno[2,3-d]pyrimidine-2,4(1H,3H)-dione]"
8,220 nM,"COCCn1c(=O)n([C@H]2C[C@H](OC)C2)c(=O)c2c(C)c(Cn3nc[nH]c3=O)sc21 [Example 153, 3-(trans-3-Methoxycyclobutyl)-1-(2-methoxyethyl)-5-methyl-6-[(5-oxo-4,5-dihydro-1H-1,2,4-triazol-1-yl)methyl]thieno[2,3-d]pyrimidine-2,4(1H,3H)-dione]"
9,3.1 nM,"Cc1c(Cn2nc[nH]c2=O)sc2c1c(=O)n([C@H]1C[C@@H]1C)c(=O)n2CCC(F)(F)F [Example 323, 5-Methyl-3-[(1S,2S)-2-methylcyclopropyl]-6-[(5-oxo-4,5-dihydro-1H-1,2,4-triazol-1-yl)methyl]-1-(3,3,3-trifluoropropyl)thieno[2,3-d]pyrimidine-2,4(1H,3H)-dione]"
10,77 nM,"Cc1c(CN2CCNC(=O)C2=O)sc2c1c(=O)n(C1(C)CCC1)c(=O)n2CCC(F)(F)F [Example 137, 6-[(2,3-Dioxopiperazin-1-yl)methyl]-5-methyl-3-(1-methylcyclobutyl)-1-(3,3,3-trifluoropropyl)thieno[2,3-d]pyrimidine-2,4(1H,3H)-dione]"
11,9.3 nM,"Cc1c(CN2CCNC(=O)C2=O)sc2c1c(=O)n(C1(C)CC1)c(=O)n2CCC(F)(F)F [Example 59, 6-[(2,3-Dioxopiperazin-1-yl)methyl]-5-methyl-3-(1-methylcyclopropyl)-1-(3,3,3-trifluoropropyl)thieno[2,3-d]pyrimidine-2,4(1H,3H)-dione]"
12,2.3 nM,"Cc1c(CN2CCNC2=O)sc2c1c(=O)n(C1CC1C)c(=O)n2CCF (racemic) [Example 231, 1-(2-Fluoroethyl)-5-methyl-3-(2-methylcyclopropyl)-6-[(2-oxoimidazolidin-1-yl)methyl]thieno[2,3-d]pyrimidine-2,4(1H,3H)-dione]"
13,560 nM,"CCOCCn1c(=O)n(C2(C)CC2)c(=O)c2c(C)c(Cn3nc[nH]c3=O)sc21 [Example 78, 1-(2-Ethoxyethyl)-5-methyl-3-(1-methylcyclopropyl)-6-[(5-oxo-4,5-dihydro-1H-1,2,4-triazol-1-yl)methyl]thieno[2,3-d]pyrimidine-2,4(1H,3H)-dione]"
14,1300 nM,"Cc1c(Cn2nc[nH]c2=O)sc2c1c(=O)n(C1CC1)c(=O)n2CC1CCC(F)(F)C1 (single isomer, unassigned) [Example 211, 3-Cyclopropyl-1-[(3,3-difluorocyclopentyl)methyl]-5-methyl-6-[(5-oxo-4,5-dihydro-1H-1,2,4-triazol-1-yl)methyl]thieno[2,3-d]pyrimidine-2,4(1H,3H)-dione]"
